Test results: patent US12459974B2, “Bicyclic peptide ligands specific for Nectin-4” (priority 2018, dated 2025)
Where two headings read alike, the source gives them in different places. *1 amine or outer side, *2 acyl side, *3 side chain or, on linkers, in order; H or OH if unused. Where a SMILES comes first, the peptide text is derived from it. Bridges are numbered along the chain shown (N, C = ends). Roman numbers before positions name the chains, in order. [ ]: non-standard residue; d: D form. The star is where a group is joined. ξ: configuration not given here. TATA = O=C(CC[*:1])N1CN(C(=O)CC[*:2])CN(C(=O)CC[*:3])C1; Dolaproine = CO[C@@H]([C@@H]1CCCN1)[C@@H](C)C(=O)O; X1 = CC[C@H](C)C(C(CC(=O)[*:2])OC)N(C)[*:1]; 1Nal = N[C@@H](Cc1cccc2ccccc12)C(=O)O; X3 = O=C(CCCC(=O)[*:2])NCCC(=O)[*:1]; PABC = O=C(OCc1ccc(N[*:1])cc1)[*:2]; Hyp = O=C(O)[C@@H]1C[C@@H](O)CN1; hArg = N=C(N)NCCCC[C@H](N)C(=O)O; Cit = NC(=O)NCCC[C@H](N)C(=O)O; X2 = CC(N*)[C@@H](O)c1ccccc1; ξNMeV = CNC(C(=O)O)C(C)C; ξV = CC(C)C(N)C(=O)O; Sar = CNCC(=O)O

Experiments:
Panc2.13 xenograft = experiment: Example 3: in vivo efficacy in Panc2.13 xenograft (pancreatic cancer model) in Balb/c nude mice; parameters: species or system Mus Musculus
MDA-MB-468 xenograft = experiment: Example 9.8: in vivo efficacy of BCY8245, BCY8781 and BCY8245 with BCY8234 in MDA-MB-468 xenograft in Balb/c nude mice; parameters: species or system Mus Musculus; conditions: for tumor relapse (in words): following monitoring schedule
MDA-MB-468 cell line = experiment: Example 11: HCS assay, Nectin-4 BDC binding study; type: cell-based
Procedure: HCS assay was used in Nectin-4 BDC binding study. Cells were incubated with test agent and then washed. Detection was by a fluorescent antibody to MMAE.

LU-01-0412 PDX = experiment: Example 12: in vivo efficacy in Lu-01-0412 PDX model of lung cancer; parameters: species or system Mus Musculus
Procedure: (§1) Animals were checked daily for any effects of tumor growth and treatments on normal behavior such as mobility, food and water consumption (by looking only), body weight gain/loss, eye/hair matting and any other abnormal effect as stated in the protocol. Death and observed clinical signs were recorded on the basis of the numbers of animals within each subset.

LU-01-0007 PDX = experiment: Example 12: in vivo efficacy in LU-01-0007 PDX model of lung cancer; parameters: species or system Mus Musculus
Procedure: as §1

NCI-H526 xenograft = experiment: Example 9.6: in vivo efficacy in NCI-H526 xenograft in Balb/c nude mice; conditions: for Tumor volume: iv
Procedure: The major endpoint was to see if the tumor growth could be delayed or mice could be cured. Tumor volume was measured three times weekly in two dimensions using a caliper, and the volume was expressed in mm^3 using the formula: V=0.5 a×b^2 where a and b are the long and short diameters of the tumor, respectively. The tumor size was then used for calculations of T/C value. The T/C value (in percent) is an indication of antitumor effectiveness; T and C are the mean volumes of the treated and control groups, respectively, on a given day. TGI was calculated for each group using the formula: TGI (%)=[1−(Ti−T0)/(Vi−V0)]×100; Ti is the average tumor volume of a treatment group on a given day, T0 is the average tumor volume of the treatment group on the day of treatment start, Vi is the average tumor volume of the vehicle control group on the same day with Ti, and V0 is the average tumor volume of the vehicle group on the day of treatment start.
A one-way ANOVA was performed to compare tumor volume among groups, and when a significant F-statistics (a ratio of treatment variance to the error variance) was obtained, comparisons between groups were carried out with Games-Howell test. All data were analyzed using GraphPad Prism 5.0. P<0.05 was considered to be statistically significant.
• Species: Mus Musculus • Strain: Balb/c nude • Age: 6-8 weeks • Sex: female • Body weight: 18-22 g • Number of animals: 21 mice plus spare 3.1.2.
The NCI-H526 cells were maintained in medium supplemented with 10% heat inactivated fetal bovine serum at 37° C. in an atmosphere of 5% CO2 in air. The tumor cells were routinely subcultured twice weekly. The cells growing in an exponential growth phase were harvested and counted for tumor inoculation.
Each mouse was inoculated subcutaneously at the right flank with NCI-H526 tumor cells (5.0×10^6 in 0.2 ml of PBS for tumor development. 21 animals were randomized when the average tumor volume reached 181 mm^3. The test article administration and the animal numbers in each group were shown in the experimental design table.
Tumor growth inhibition rate for test articles in the NCI-H526 xenograft model was calculated based on tumor volume measurements at day 14 after the start of the treatment.

[1] = 1 mg/kg qw and 3 mg/kg qw in combination with BCY8234 300 mg/kg qw, day 21

## CC[C@H](C)C(C(CC(=O)N1CCC[C@H]1[C@H](OC)[C@@H](C)C(=O)NC(C)[C@@H](O)c1ccccc1)OC)N(C)C(=O)[C@@H](NC(=O)C(C(C)C)N(C)C(=O)OCc1ccc(NC(=O)[C@H](CCCNC(N)=O)NC(=O)C(NC(=O)CCCC(=O)NCCC(=O)N(C)CC(=O)N(C)CC(=O)N(C)CC(=O)N(C)CC(=O)N(C)CC(=O)N(C)CC(=O)N(C)CC(=O)N(C)CC(=O)N(C)CC(=O)N(C)CC(=O)N[C@H]2CSCCC(=O)N3CN4CN(C3)C(=O)CCSC[C@H](NC(=O)[C@@H](CC(=O)O)NC(=O)[C@H](Cc3cccc5ccccc35)NC(=O)[C@@H]3CCCN3C2=O)C(=O)N[C@@H](CCSC)C(=O)N[C@@H](CCCCNC(=N)N)C(=O)N[C@@H](CC(=O)O)C(=O)N[C@@H](Cc2c[nH]c3ccccc23)C(=O)N[C@@H](CO)C(=O)N[C@@H]([C@@H](C)O)C(=O)N2CCC[C@H]2C(=O)N2C[C@H](O)C[C@H]2C(=O)N[C@@H](Cc2c[nH]c3ccccc23)C(=O)N[C@H](C(N)=O)CSCCC4=O)C(C)C)cc1)C(C)C (stereo partly drawn) [BCY8245, MMAE-PABC-Cit-Val-Glutaryl-BCY8234] (I: [Sar][Sar][Sar][Sar][Sar][Sar][Sar][Sar][Sar][Sar]CP[1Nal][dD]CM[hArg]DWSTP[Hyp]WC-NH2 / II: [ξV][Cit][PABC][ξNMeV]V[X1][Dolaproine]-X2; linker I:11-I:15-I:25 via TATA; linker I:N-II:N via X3)
Panc2.13 xenograft; 5 mpk, qw, iv, day 4
  Tumor volume: 231 ± 33 mm^3
Panc2.13 xenograft; 5 mpk, qw, iv, day 7
  Tumor volume: 242 ± 34 mm^3
Panc2.13 xenograft; 5 mpk, qw, iv, day 9
  Tumor volume: 248 ± 40 mm^3
Panc2.13 xenograft; 5 mpk, qw, iv, day 11
  Tumor volume: 231 ± 37 mm^3
Panc2.13 xenograft; 5 mpk, qw, iv, day 14
  Tumor volume: 238 ± 40 mm^3
Panc2.13 xenograft; 5 mpk, qw, day 14
  T/C: 43.6%
  TGI: 77.5%
Panc2.13 xenograft; 5 mpk, qw, day 14, Mean ± SEM (Table 19)
  Tumor volume: 238 ± 40 mm^3
Panc2.13 xenograft; mouse, in vivo
  anti-tumour activity (in words): good anti-tumour activity
MDA-MB-468 xenograft; 0.3 mg/kg qw or biw
  anti-tumor activity (in words): did not show any anti-tumor activity
MDA-MB-468 xenograft; [1]
  TGI: 75.4%
  Tumor volume (TV): 242 mm^3
MDA-MB-468 xenograft; 1 mg/kg qw, day 21
  TGI: 92.1%
  Tumor volume (TV): 204 mm^3
MDA-MB-468 xenograft; 1 mg/kg qw
  tumor relapse (in words): obvious tumor relapse
MDA-MB-468 xenograft; 3 mg/kg qw, day 21
  TGI: 164.9%
  Tumor volume (TV): 27 mm^3
MDA-MB-468 xenograft; 3 mg/kg qw
  tumor relapse (in words): didn't show any tumor relapse
MDA-MB-468 xenograft; 3 mg/kg with BCY8234 300 mg/kg
  anti-tumor activity at 3 mg/kg in presence of BCY8234 at 300 mg/kg versus alone (in words): antagonized by BCY8234
MDA-MB-468 xenograft; 0.3 mpk, qw
  T/C: 71.4%
  TGI: 52.7%
MDA-MB-468 xenograft; 1 mpk, qw
  T/C: 48.6%
  TGI: 92.1%
MDA-MB-468 xenograft; 3 mpk, qw
  T/C: 6.5%
  TGI: 164.9%
MDA-MB-468 xenograft; former vehicle group, single dose of 5 mg/kg on day 32
  tumor response (in words): obvious tumor regression
MDA-MB-468 cell line
  Bmax (in words): lower than for the Nectin-4 ADC
  binding affinity on MDA-MB-468 cell line (in words): single digit nanomolar affinity
MDA-MB-468 cell line; MDA-MB-468 cell line, fluorescent antibody to MMAE
  Max fluorescent intensity: 13.34
MDA-MB-468 cell line; MDA-MB-468 cell line, historical data, read-out: Historical Kd
  Kd: 5.18 nM
MDA-MB-468 cell line; MDA-MB-468 cell line, read-out: Kd
  Kd: 3.52 nM
MDA-MB-468 cell line; detection by a fluorescent antibody to MMAE
  retention on the cells (in words): retained on the cells
LU-01-0412 PDX; 1 mg/kg qw
  efficacy (in words): reduction in tumour growth rate
LU-01-0412 PDX; 3 mg/kg qw
  efficacy (in words): marked tumor regression
LU-01-0412 PDX; 3 mg/kg qw, after cessation of dosing (Day 21) out to 105 days post study start
  animals with no tumour regrowth: 5/6
LU-01-0412 PDX; single dose
  response of large tumors (vehicle treated group) to a single dose (in words): regressed
LU-01-0007 PDX; 1 mg/kg qw
  efficacy (in words): stable disease
LU-01-0007 PDX; 3 mg/kg, after dosing ceased, out to 126 days post study start
  tumor regrowth (in words): no tumor regrowth
LU-01-0007 PDX; 3 mg/kg, dosing maintained out to day 56
  efficacy (in words): full regression
NCI-H526 xenograft; 3 mg/kg biw, day 14
  TGI: 21.6%
  Tumor volume (TV): 1109 mm^3
NCI-H526 xenograft; 3 mg/kg qw, day 14
  TGI: 13.4%
  Tumor volume (TV): 1205 mm^3
NCI-H526 xenograft; 5 mg/kg biw
  animal bodyweight loss: over 10%
NCI-H526 xenograft; 5 mg/kg qw, day 14
  TGI: 75.0%
  Tumor volume (TV): 476 mm^3
NCI-H526 xenograft; 3 mpk, biw, day 0 after the start of treatment
  Tumor volume: 182 mm^3
NCI-H526 xenograft; 3 mpk, biw, day 2
  Tumor volume: 232 mm^3
NCI-H526 xenograft; 3 mpk, biw, day 4
  Tumor volume: 308 mm^3
NCI-H526 xenograft; 3 mpk, biw, day 7
  Tumor volume: 440 mm^3
NCI-H526 xenograft; 3 mpk, biw, day 9
  Tumor volume: 530 mm^3
NCI-H526 xenograft; 3 mpk, biw, day 12
  Tumor volume: 810 mm^3
NCI-H526 xenograft; 3 mpk, biw, day 14
  Tumor volume: 1109 mm^3
  T/C: 81.3%
  TGI: 21.6%
  Tumor Volume (Mean ± SEM): 1109 ± 250 mm^3
NCI-H526 xenograft; 3 mpk, qw, day 0 after the start of treatment
  Tumor volume: 180 mm^3
NCI-H526 xenograft; 3 mpk, qw, day 2
  Tumor volume: 256 mm^3
NCI-H526 xenograft; 3 mpk, qw, day 4
  Tumor volume: 403 mm^3
NCI-H526 xenograft; 3 mpk, qw, day 7
  Tumor volume: 545 mm^3
NCI-H526 xenograft; 3 mpk, qw, day 9
  Tumor volume: 657 mm^3
NCI-H526 xenograft; 3 mpk, qw, day 12
  Tumor volume: 1019 mm^3
NCI-H526 xenograft; 3 mpk, qw, day 14
  Tumor volume: 1205 mm^3
  T/C: 88.3%
  TGI: 13.4%
  Tumor Volume (Mean ± SEM): 1205 ± 79 mm^3
NCI-H526 xenograft; 5 mpk, qw, day 0 after the start of treatment
  Tumor volume: 180 mm^3
NCI-H526 xenograft; 5 mpk, qw, day 2
  Tumor volume: 209 mm^3
NCI-H526 xenograft; 5 mpk, qw, day 4
  Tumor volume: 236 mm^3
NCI-H526 xenograft; 5 mpk, qw, day 7
  Tumor volume: 383 mm^3
NCI-H526 xenograft; 5 mpk, qw, day 9
  Tumor volume: 375 mm^3
NCI-H526 xenograft; 5 mpk, qw, day 12
  Tumor volume: 365 mm^3
NCI-H526 xenograft; 5 mpk, qw, day 14
  Tumor volume: 476 mm^3
  T/C: 34.9%
  TGI: 75.0%
  Tumor Volume (Mean ± SEM): 476 ± 103 mm^3
NCI-H526 xenograft; mouse, in vivo
  tumor response (in words): tumor growth is restrained by BCY8245 but the tumor does not undergo regression
